Earlier results, collected in the PKSmart pharmacokinetics tables (Seal et al. 2025).

Experiments:
[1] = Lombardo, Berellini, Obach 2018, Drug Metab Dispos 46:1466, doi 10.1124/dmd.118.082966; settings: human; for MRT / Vd / clearance / half-life: in vivo, iv; for fraction unbound: plasma
[2] = Lombardo et al. 2013, J Clin Pharmacol 53:178, doi 10.1177/0091270012440282; settings: for Vd / clearance: in vivo, iv; for fraction unbound: plasma

Row | SMILES | MRT [1] [h] | Vd [1] [L/kg] | clearance [1] [mL/min/kg] | half-life [1] [h] | fraction unbound [1] | Vd ([2]; dog) [L/kg] | clearance ([2]; dog) [mL/min/kg] | Vd ([2]; rat) [L/kg] | clearance ([2]; rat) [mL/min/kg] | fraction unbound ([2]; rat) | fraction unbound ([2]; dog) | Vd ([2]; monkey) [L/kg] | clearance ([2]; monkey) [mL/min/kg] | fraction unbound ([2]; monkey)
1 | CCOC(=O)C1[C@@H](OC(=O)c2ccccc2)C[C@@H]2CC[C@H]1N2C (stereo not given in full) | 2 | 1.6 | 13 | 1.5 | 0.64 | 2.68 | 42.2 | – | – | – | – | – | – | –
2 | Nc1ncn([C@H]2C[C@H](O)[C@@H](CO)O2)c(=O)n1 | 0.59 | 4.6 | 130 | 0.58 | – | 0.85 | 8.6 | 1.8 | 7.9 | – | – | – | – | –
3 | C[C@@H]1CN(C2CCC(C#N)(c3ccc(F)cc3)CC2)CC[C@]1(C(=O)O)c1ccccc1 (stereo not given in full) | 45.3 | 1.17 | 0.43 | 33 | 0.453 | – | – | 1.36 | 27 | 0.46 | – | – | – | –
4 | CCCC(=O)OCOC(=O)C1=C(C)NC(C)=C(C(=O)OC)C1c1cccc(Cl)c1Cl (stereo not given) | 0.07 | 0.58 | – | 0.3 | – | 0.21 | – | 0.44 | – | – | – | – | – | –
5 | CSc1ccc(C(=O)c2[nH]c(=O)[nH]c2C)cc1 | 1.33 | 1.48 | 19.1 | 1.94 | 0.3 | 2.1 | 26 | – | – | – | – | – | – | –
6 | Nc1ccc(S(=O)(=O)c2ccc(N)cc2)cc1 | 29 | 0.83 | – | – | 0.25 | – | – | 1.6 | 5.2 | – | – | – | – | –
7 | O=C(c1ccc(F)cc1)C1CCN(CCn2c(=O)[nH]c3ccccc3c2=O)CC1 | – | – | – | 12 | – | – | 24.7 | – | 3.8 | 0.01 | 0.0948 | – | – | –
8 | COc1cc2c(c(OC)c1OC)-c1ccc(OC)c(=O)cc1[C@@H](NC(C)=O)CC2 | 49 | 6.1 | 2.1 | 58 | – | – | – | 31.4 | 34.3 | – | – | – | – | –
9 | Nc1nc(N)c2nc(-c3ccccc3)c(N)nc2n1 | 3.4 | 13 | 63 | 4.3 | 0.42 | – | – | 2.2 | 10.1 | – | – | – | – | –
10 | NC12CC3CC(CC(C3)C1)C2 | 23 | 6.6 | 4.8 | 16 | – | – | – | 6.4 | 19 | 0.52 | – | – | – | –
11 | O=C(O)P(=O)(O)O | – | 0.5 | 2.1 | 4.7 | – | 0.65 | 3.62 | – | – | – | – | – | – | –
12 | Cc1nnc2n1-c1sc(Br)cc1C(c1ccccc1Cl)=NC2 | 6 | 0.75 | 2 | 4.8 | 0.092 | 6.1 | 11 | 3 | 23 | 0.22 | – | 6.5 | 13 | –
13 | CC(C)(C)NCC(O)c1ccc(O)c(CO)c1 (stereo not given) | 4.1 | 1.9 | – | – | – | 3.9 | – | 30 | – | 0.05 | 0.05 | – | – | –
14 | COc1ccnc(C[S+](O)c2nc3ccc(OC(F)F)cc3[n-]2)c1OC (stereo not given) | 1.3 | 0.17 | 2.2 | 1.9 | 0.02 | – | – | 0.35 | 8.5 | – | – | – | – | –
15 | CC(C)(ON=C(C(=O)NC1C(=O)N2C(C(=O)O)=C(C[n+]3ccccc3)CS[C@H]12)c1csc(N)n1)C(=O)[O-] (stereo not given in full) | 2.2 | 0.31 | 2.4 | 1.8 | 0.79 | 0.21 | 3.2 | 0.3 | 8.7 | – | 1 | 0.26 | 2.1 | 0.945
16 | Oc1ccc2c3c1O[C@H]1[C@@H](O)CC[C@@]4(O)[C@@H](C2)N(CC2CCC2)CC[C@]314 | 3.5 | 4.6 | 22 | 3.7 | – | – | – | 11 | 111 | – | – | – | – | –
17 | Cn1c(=O)c2c(ncn2C)n(C)c1=O | 7.5 | 0.63 | 1.4 | 4.9 | – | 0.76 | 2.35 | 0.92 | 12.5 | – | – | 0.83 | 3.06 | –
18 | COc1cccc([C@@]2(O)CCCC[C@@H]2CN(C)C)c1 | 7.2 | 2.8 | 6.5 | 5.8 | – | 3.01 | 54.6 | 3.86 | 63.5 | 0.75 | 0.745 | – | – | –
19 | Cc1nc2n(c(=O)c1CCN1CCC(c3noc4cc(F)ccc34)CC1)CCCC2 | – | – | – | 3.2 | – | – | – | 3.6 | 71.7 | 0.118 | 0.083 | – | – | 0.084
20 | CN(C)CCc1c[nH]c2ccc(C[C@H]3COC(=O)N3)cc12 | 4.6 | 1.8 | 6.7 | 3.6 | – | – | – | 3.53 | 29.4 | – | – | – | – | –
21 | CC1(C)S[C@@H]2C(NC(=O)C(C(=O)O)c3ccsc3)C(=O)N2C1C(=O)O (stereo not given in full) | 1.5 | 0.16 | 1.8 | 1 | 0.55 | 0.28 | 4.3 | – | – | – | – | – | – | –
22 | CC(CC(c1ccccc1)c1ccccc1)NC(C)(C)C (stereo not given) | 81 | 5.1 | 1.1 | 56 | – | – | 41 | – | – | – | 0.14 | – | – | –
23 | CO[C@@]1(NC(O)=c2sc(=C(C(N)=O)C(=O)O)s2)C(=O)N2C(C(=O)O)=C(CSc3nnnn3C)CS[C@@H]21 | 5.2 | 0.13 | 0.42 | 4.5 | 0.15 | 0.25 | 4 | 0.25 | 12.8 | 0.7 | 0.6 | 0.17 | 1.7 | 0.13
24 | CCOC(=O)C1(c2ccccc2)CCN(C)CC1 | 6.4 | 2.3 | 4.9 | 7.9 | 0.42 | 2.4 | 43 | 9.2 | 245 | – | – | – | – | –
25 | C[C@@H]1CN(c2c(F)c(N)c3c(=O)c(C(=O)O)cn(C4CC4)c3c2F)C[C@H](C)N1 | 24 | 3.9 | 2.7 | 20 | – | – | – | 3.5 | 19.6 | 0.5 | – | – | – | –
26 | O=C(O)c1cc(-c2ccc(F)cc2F)ccc1O | 14 | 0.097 | 0.1 | 10 | – | – | – | 0.15 | 1.52 | – | – | – | – | –
27 | CN(C)CCc1c[nH]c2ccc(Cn3cncn3)cc12 | 2 | 1.9 | 16 | 2.2 | – | 2.5 | 40 | – | 79 | – | – | – | – | –
28 | CON=C(C(=O)NC1C(=O)N2C(C(=O)[O-])=C(C[n+]3ccc(N)n3CCO)CS[C@H]12)c1csc(N)n1 (stereo not given in full) | 2.78 | 0.3 | 1.77 | 2.9 | – | 0.39 | 3.5 | 0.2 | 9.6 | – | – | 0.28 | 1.9 | –
29 | COc1ccc2c3c1OC1C(=O)CC[C@@]4(O)[C@@H](C2)N(C)CC[C@]314 (stereo not given in full) | – | – | – | – | 0.55 | – | – | – | – | 0.87 | – | – | – | –
30 | COc1cc(NS(C)(=O)=O)ccc1Nc1c2ccccc2nc2ccccc12 | 6.2 | 1.6 | 4.3 | 4.7 | 0.029 | 2.8 | 16 | 4.5 | 83 | 0.1 | 0.081 | – | – | –
